Columns and labels:
[1] = system: ChR2-CMs (neonatal rat ventricular CMs); type: cell-based
Protocol: (§1) Primary CMs were used through the study for all illustrative experiments with pharmacological treatments, mainly because at the current stage, they are perceived as more mature than the hiPSC-CMs and their response to drugs has been better documented. Briefly, neonatal (2-3 day old) SPRAGUE-DAWLEY® rats were sacrificed and ventricular tissue was removed per an approved Stony Brook University IACUC protocol. The tissue was digested overnight at 4° C. using 1 mg/mL trypsin (US BIOCHEMICALS®, Cleveland, Ohio) in Hanks' Balanced Salt Solution (HBSS, GIBCO® INVITROGEN™, Carlsbad, Calif.). The next morning, the tissue was serially digested using 1 mg/mL collagenase (WORTHINGTON BIOCHEMICAL®, Lakewood, N.J.) in HBSS at 37° C. and pipetted into conical tubes and placed on ice. After centrifugation, cells were re-suspended in culture medium M199 (GIBCO®) supplemented with […] L-glutamine (GIBCO®), 0.05 μg/mL penicillin-streptomycin (MEDIATECH CELLGRO™, Kansas City, Mo.), 0.2 μg/mL vitamin B12 (SIGMA ALDRICH®, St. Louis, Mo.), 10 mM HEPES (GIBCO®), 3.5 mg/mL D-(+)-glucose (SIGMA ALDRICH®), and 10% fetal bovine serum, FBS (GIBCO®). Fibroblasts were removed via a two-step pre-plating process, where the cell suspension was plated in a flask and incubated (37° C., 5% CO2) for 45-60 minutes and switched to a new flask and the incubation repeated. CMs were then counted using a hemocytometer prior to plating in glass-bottom 96-well plates (see Jia, Z. et al. Circulation. Arrhythmia and electrophysiology 4, 753-760, (2011) and Chung, C. Y., et al. J Cardiovasc Electrophysiol […], 1323-1329, (2007)).
Adenoviral delivery of ChR2(H134R) to primary CMs was performed in suspension (see Ambrosi, C. M. et al. Methods Mol Biol 1181, 215-228, (2014)). Briefly, the plasmid pcDNA3.1/hChR2(H134R)-EYFP was used (ADDGENE™, Cambridge, Mass.; deposited by Dr. K. Deisseroth) (see Zhang, F. et al. Nature 446, 633-639, (2007)), to develop an adenoviral construct (pBR322 backbone) with a ubiquitous CMV promoter. First-generation adenovirus was generated by homologous recombination of the Ad-CMV-ChR2-eYFP into pTG3604; further propagation and purification of the virus genomes was done by transfection into HEK293 cells and CsC1 banding. CMs were re-suspended in 2% FBS M199 after counting and diluted to 1.125×10^6 cells/mL and infected using an optimized MOI of 15 for two hours in an incubator (37° C., 5% CO2) with gentle agitation every 20 minutes. The MOI had been optimized during preliminary experiments to achieve >95% ChR2 expression in CMs within 48 hours using titer of 10^12 units/mL diluted in PBS, confirmed by eYFP reporter visualization and minimal cell death (by propidium iodide staining) (see Ambrosi, C. M., et al. Prog Biophys Mol Biol 115, 294-304, (2014) and Ambrosi, C. M. et al. Methods Mol Biol 1181, 215-228, (2014)). After two hours, the cell suspension was centrifuged and culture medium was removed and replaced with fresh 10% FBS M199 for plating (see Ambrosi, C. M. et al. Methods Mol Biol 1181, 215-228, (2014)).
Non-infected control CMs and ChR2-CM cells (for OptoHTS) were plated using a concentration of 1.125×10^6 cells/mL to achieve a plating density of 470,000 cells/cm^2. For CM/ChR2-HEK co-cultures, CMs at a concentration of 1.125×10^6 cells/mL were mixed in a conical with trypsinized ChR2-HEK cells, pre-diluted to achieve ratios 150:1 CM to ChR2-HEK. After centrifugation, the media was removed and the cells were re-suspended in fresh 10% FBS M199 to achieve the same density of plating as the control CMs.
All functional experiments were carried out 4-5 days after cell plating, at room temperature in Tyrode's solution containing the following (in mM): NaCl, 135; MgCl2, 1; KCl, 5.4; CaCl2, 1.5; NaH2PO4, 0.33; glucose, 5; and HEPES, 5 adjusted to pH 7.4 with NaOH (see Chung, C. Y., et al. J Cardiovasc Electrophysiol 18, 1323-1329, (2007)). […]

"spark"-ChR2-CMs = assay: sOptoHTS: all-optical electrophysiology of CMs sprinkled with "spark" ChR2-HEK cells; type: cell-based, rat
Protocol: as §1
The cell delivery approach employs “spark” cells (ChR2(H134R)-HEK293), a stable cell line showing near 100% expression of ChR2. “Spark” cells were developed by transfecting HEK293 cells (CRL-1573™ ATCC®, Manassas, Va.) with the ChR2 plasmid pcDNA3.1/hChR2(H134R)-EYFP using LIPOFECTAMINE® 2000 (INVITROGEN™, Carlsbad, Calif.). […]

hiPS-CMs = assay: Optical calcium recording in hiPS-CMs (OptoDyCE); type: cell-based, human; conditions: 1 μM, 10 min
Protocol: Frozen human iPSC-derived CMs (ICELL® Cardiomyocytes^2 CMC-100-012-001, CELLULAR DYNAMICS INTERNATIONAL™, Madison, Wis.) were thawed per the manufacturer's instructions. The cells were plated at the recommended plating density of 156,000 cells/cm^2 on fibronectin-coated 96-well glass-bottom plates. In some experiments, cells were grown in three-dimensional microgrooved scaffolds. These fibronectin-coated PDMS (SYLGARD® 184, DOW CORNING®, Midland, Mich.) scaffolds with microtopographical features (see FIG. 16, panel “e,” peak-to-peak 120 μm, depth of 50 μm) were produced by molding onto metal templates fabricated by acoustic micromachining (see Entcheva, E. et al. Lab Chip 5, 179-183, (2005); Chung, C. Y. et al. FASEB journal: official publication of the Federation of American Societies for Experimental Biology 25, 851-862, (2011); and Chung, C. Y., et al. J Cardiovasc Electrophysiol 18, 1323-1329, (2007)); and small circular microgrooved scaffolds were punched-out and placed in the 96-well plates. […]
Optical recording of membrane voltage, Vm, was performed using the synthetic voltage-sensitive dye Di-4-ANBDQBS, spectrally-compatible with ChR2. […] Intracellular calcium, [Ca^2+]i, was recorded using QUEST RHOD-4™, AM diluted from a 0.5 mM stock solution dissolved in DMSO with 20% PLURONIC® to 10 μM in Tyrode's solution. […]

In the case of `C[S+](C)[O-]` [DMSO], the “effect on APD / electrophysiological measurements” value [1] is reported as “not seen to affect the electrophysiological (EP) measurements”.

With `CN(CCOc1ccc(NS(C)(=O)=O)cc1)CCc1ccc(NS(C)(=O)=O)cc1` [dofetilide, Dofetilide] the “calcium instability / spatial heterogeneity” value ([1]; 0.02 μM, paced at 1 Hz, 0.539 mW/mm^2 10 ms light pulses) was “localized spontaneous calcium release (SCR)”, the “spatial variability in APD (dispersion of repolarization)” value ([1]; 2 μM, 1 Hz pacing, versus control, p<0.05 for APD50) was “increases spatial variability in APD” and the “effect on APD” value ([1]; 2 μM, 2 Hz optical pacing) was “APD prolongation”. The voltage instabilities ([1]; 2 μM, 2 Hz optical pacing) was “alternans”, the “relative APD50 change versus pacing frequency” value ([1]; at higher frequency, opposite to reverse-use dependence) was “enhanced relative APD50 prolongation” and the “drug-induced AP variation, lower dose” value ("spark"-ChR2-CMs; 0.2 μM, paced at 1 Hz) was “sporadic EADs”. For the same compound, the “drug-induced AP variation, higher dose” value ("spark"-ChR2-CMs; 2 μM, paced 2 Hz) was “large temporal variability in AP morphology” and the “early afterdepolarizations (EADs) versus dose” value ("spark"-ChR2-CMs; optically paced samples, FIGS. 10A-10C) was “dose-dependent increase in EADs”.

In the case of `CC(C)NCC(O)c1ccc(O)c(O)c1` (stereo not shown) [isoproterenol], the “calcium-mediated pacing activity in quiescent cells” value (hiPS-CMs; quiescent hiPS-CMs) is reported as “calcium-mediated pacing activity was induced” and the “rate of pacing in spontaneously beating cells” value (hiPS-CMs; spontaneously beating hiPS-CMs) is reported as “rate of pacing was accelerated”.

In the case of `COC(=O)C1=C(C)NC(C)=C(C(=O)OC)C1c1ccccc1[N+](=O)[O-]` [nifedipine, Nifedipine], the “concentration of maximum APD shortening” value ([1]; optical pacing 1 Hz) is reported as “around 1 μM” and the “concentration up to which CTD monotonically decreases” value ([1]; optical pacing 1 Hz) is reported as “up to 10 μM”.
